According to PubChem BioAssay (NCI):
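In this assay, cells in 96-well plates receive the compound at five concentrations for 48 hours. Endpoints are linearly interpolated between the surrounding concentrations. TGI is the concentration that stops growth completely.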

Tests used:
Assay in all cases: NCI tumour cell line growth inhibition, 48 h
[1] = system: HS 578T breast
[2] = system: MDA-MB-435
[3] = system: NCI-H522 lung
[4] = system: UACC-62 melanoma
[5] = system: UACC-257 melanoma
[6] = system: NCI-H460 lung
[7] = system: MDA-N
[8] = system: K-562 leukemia
[9] = system: SF-268 CNS
[10] = system: SNB-19 CNS
[11] = system: OVCAR-3 ovarian
[12] = system: EKVX NSCLC
[13] = system: MOLT-4 leukemia
[14] = system: SK-MEL-2 melanoma
[15] = system: HCT-116 colon
[16] = system: OVCAR-4 ovarian
[17] = system: ACHN renal
[18] = system: 786-0 renal
[19] = system: RXF 393 renal
[20] = system: T-47D breast
[21] = system: SN12C renal
[22] = system: BT-549 breast
[23] = system: HOP-92 NSCLC
[24] = system: A498 renal
[25] = system: IGROV1 ovarian
[26] = system: NCI-H23 lung
[27] = system: NCI-H226 lung
[28] = system: A549 NSCLC
[29] = system: HOP-62 NSCLC
[30] = system: HT29 colon
[31] = system: CAKI-1 renal
[32] = system: RPMI-8226 leukemia
[33] = system: SR leukemia
[34] = system: M14 melanoma
[35] = system: PC-3 prostate
[36] = system: MDA-MB-231 breast
[37] = system: MALME-3M melanoma
[38] = system: U251 CNS
[39] = system: MCF7 breast
[40] = system: TK-10 renal
[41] = system: LOX IMVI melanoma
[42] = system: SF-295 CNS
[43] = system: HCT-15 colon
[44] = system: SW-620 colon
[45] = system: DU-145 prostate
[46] = system: KM12 colon
[47] = system: UO-31 renal
[48] = system: OVCAR-5 ovarian
[49] = system: SK-MEL-28 melanoma
[50] = system: SK-MEL-5 melanoma
[51] = system: SNB-75 CNS
[52] = system: OVCAR-8 ovarian
[53] = system: HCC-2998 colon
[54] = system: SK-OV-3 ovarian
[55] = system: SF-539 CNS
[56] = system: NCI/ADR-RES ovarian
[57] = system: CCRF-CEM leukemia
[58] = system: HL-60(TB) leukemia
[59] = system: COLO 205 colon

What does the source list for CC(CO)[C@H]1OC(=O)C=C2[C@@]13O[C@@H]3[C@H]1OC(=O)[C@@]3(C)[C@H]4O[C@H]4C[C@@]2(C)[C@@H]13 (some centres not stated)?
TGI [1]: 12.6 µM; TGI [2]: 18.4 µM; TGI [3]: 5.38 µM; TGI [4]: 7.36 µM; TGI [5]: > 26.1 µM; TGI [6]: > 24.4 µM; TGI [7]: 14 µM; TGI [8]: > 100 µM; TGI [9]: > 25.8 µM; TGI [10]: > 30.8 µM; TGI [11]: > 30.1 µM; TGI [12]: 18.3 µM; TGI [13]: 3.65 µM; TGI [14]: 11.1 µM; TGI [15]: > 28 µM; TGI [16]: > 24.3 µM; TGI [17]: 4 µM; TGI [18]: > 28.1 µM; TGI [19]: 6.33 µM; TGI [20]: > 46.1 µM; TGI [21]: 13.6 µM; TGI [22]: 8.2 µM; TGI [23]: > 26.9 µM; TGI [24]: > 29.4 µM; TGI [25]: 12 µM; TGI [26]: > 36.6 µM; TGI [27]: 5.47 µM; TGI [28]: > 39.8 µM; TGI [29]: > 100 µM; TGI [30]: 20.7 µM; TGI [31]: 8.25 µM; TGI [32]: 8.75 µM; TGI [33]: 982 nM; TGI [34]: > 22.8 µM; TGI [35]: 23.1 µM; TGI [36]: > 29.6 µM; TGI [37]: 8.46 µM; TGI [38]: > 100 µM; TGI [39]: 8.05 µM; TGI [40]: > 28.2 µM; TGI [41]: 1140 nM; TGI [42]: > 33.4 µM; TGI [43]: > 31 µM; TGI [44]: > 100 µM; TGI [45]: > 27.1 µM; TGI [46]: 14.9 µM; TGI [47]: 6.41 µM; TGI [48]: > 87.9 µM; TGI [49]: > 100 µM; TGI [50]: > 37.5 µM; TGI [51]: 6.05 µM; TGI [52]: 9.02 µM; TGI [53]: 8.58 µM; TGI [54]: > 57 µM

With Cn1nc2c(c1N)Cc1c(nn(C)c1N)-c1ccccc1-2 as the compound, how does the TGI [1] read?
Its TGI is > 100 µM.

What about the TGI [2] of the same compound?
The TGI was > 100 µM.

And the TGI [3]?
Its TGI is > 100 µM.

And the TGI [4]?
Its TGI is > 100 µM.

What about the TGI [5] of the same compound?
Its TGI is > 100 µM.

What about the TGI [6] of the same compound?
Its TGI is > 100 µM.

What about the TGI [7] of the same compound?
The TGI was > 100 µM.

And the TGI [8]?
The TGI was > 100 µM.

What about the TGI [9] of the same compound?
The TGI was > 100 µM.

What about the TGI [10] of the same compound?
Its TGI is > 100 µM.

What about the TGI [11] of the same compound?
Its TGI is > 100 µM.

And the TGI [12]?
The TGI was > 100 µM.

What about the TGI [13] of the same compound?
The TGI was > 100 µM.

And the TGI [14]?
The TGI was > 100 µM.

What about the TGI [15] of the same compound?
Its TGI is > 100 µM.

What about the TGI [16] of the same compound?
Its TGI is > 100 µM.

What about the TGI [17] of the same compound?
The TGI was > 100 µM.

And the TGI [18]?
The TGI was > 100 µM.

What about the TGI [19] of the same compound?
Its TGI is > 100 µM.

What about the TGI [20] of the same compound?
Its TGI is > 100 µM.

And the TGI [21]?
Its TGI is > 100 µM.

And the TGI [22]?
The TGI was > 100 µM.

And the TGI [23]?
Its TGI is > 100 µM.

What about the TGI [24] of the same compound?
The TGI was > 100 µM.

What about the TGI [25] of the same compound?
Its TGI is > 100 µM.

And the TGI [26]?
The TGI was > 100 µM.

What about the TGI [27] of the same compound?
The TGI was > 100 µM.

And the TGI [28]?
The TGI was > 100 µM.

And the TGI [55]?
The TGI was > 100 µM.

And the TGI [56]?
The TGI was > 100 µM.

And the TGI [29]?
The TGI was > 100 µM.

What about the TGI [30] of the same compound?
The TGI was > 100 µM.

And the TGI [31]?
Its TGI is > 100 µM.

And the TGI [32]?
Its TGI is > 100 µM.

And the TGI [33]?
Its TGI is > 100000 nM.

And the TGI [34]?
Its TGI is > 100 µM.

What about the TGI [35] of the same compound?
Its TGI is > 100 µM.

And the TGI [36]?
The TGI was > 100 µM.

What about the TGI [37] of the same compound?
The TGI was > 100 µM.

And the TGI [38]?
Its TGI is > 100 µM.

And the TGI [39]?
Its TGI is > 100 µM.

What about the TGI [40] of the same compound?
The TGI was > 100 µM.

What about the TGI [41] of the same compound?
The TGI was > 100000 nM.

What about the TGI [42] of the same compound?
The TGI was > 100 µM.

What about the TGI [43] of the same compound?
Its TGI is > 100 µM.

What about the TGI [44] of the same compound?
The TGI was > 100 µM.

What about the TGI [57] of the same compound?
The TGI was > 100 µM.

What about the TGI [58] of the same compound?
The TGI was > 100 µM.

And the TGI [59]?
Its TGI is > 100 µM.

And the TGI [45]?
Its TGI is > 100 µM.

What about the TGI [46] of the same compound?
Its TGI is > 100 µM.

What about the TGI [47] of the same compound?
Its TGI is > 100 µM.

What about the TGI [48] of the same compound?
Its TGI is > 100 µM.

What about the TGI [49] of the same compound?
Its TGI is > 100 µM.

And the TGI [50]?
Its TGI is > 100 µM.

What about the TGI [52] of the same compound?
Its TGI is > 100 µM.

What about the TGI [53] of the same compound?
The TGI was > 100 µM.

And the TGI [54]?
Its TGI is > 100 µM.
